Reference: ChEMBL document CHEMBL1201861, “Genomics of Drug Sensitity in Cancer screening data, Wellcome Trust Sanger Institute”

Key:
Assay in all cases: cells
CHP-212 = format: functional, cell-based; conditions: Homo sapiens
Description: SANGER: Inhibition of human CHP-212 cell growth in a cell viability assay.

OVCAR-3 = format: functional, cell-based; conditions: Homo sapiens;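 note: growth inhibition of human OVCAR-3 cells, determined by a cell viability assay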
Description: SANGER: Inhibition of human OVCAR-3 cell growth in a cell viability assay.

BFTC-905 = format: functional, cell-based; conditions: Homo sapiens
Description: SANGER: Inhibition of human BFTC-905 cell growth in a cell viability assay.

SBC-5 = format: functional, cell-based; conditions: Homo sapiens;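 note: cell viability assay read-out, IC50 is the concentration that inhibits growth of the cells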
Description: SANGER: Inhibition of human SBC-5 cell growth in a cell viability assay.

MDA-MB-134-VI = format: functional, cell-based, Homo sapiens; conditions: Homo sapiens, MDA-MB-134-VI
Description: SANGER: Inhibition of human MDA-MB-134-VI cell growth in a cell viability assay.

T47D = format: functional, cell-based; conditions: Homo sapiens;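 note: growth inhibition of human T47D cells, measured with a cell viability assay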
Description: SANGER: Inhibition of human T47D cell growth in a cell viability assay.

NCI-H510A = format: functional, cell-based, Homo sapiens; conditions: Homo sapiens, NCI-H510A;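 note: growth inhibition of NCI-H510A cells, read out with a cell viability assay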
Description: SANGER: Inhibition of human NCI-H510A cell growth in a cell viability assay.

786-0 = format: functional, cell-based; conditions: Homo sapiens
Description: SANGER: Inhibition of human 786-0 cell growth in a cell viability assay.

SR = format: functional, cell-based, Homo sapiens; conditions: Homo sapiens, SR
Description: SANGER: Inhibition of human SR cell growth in a cell viability assay.

BCPAP = format: functional, cell-based; conditions: Homo sapiens;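 note: growth inhibition of BCPAP cells, read out in a cell viability assay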
Description: SANGER: Inhibition of human BCPAP cell growth in a cell viability assay.

PANC-03-27 = format: functional, cell-based; conditions: Homo sapiens
Description: SANGER: Inhibition of human PANC-03-27 cell growth in a cell viability assay.

NY = format: functional, cell-based; conditions: Homo sapiens
Description: SANGER: Inhibition of human NY cell growth in a cell viability assay.

JEG-3 = format: functional, cell-based; conditions: Homo sapiens;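 note: growth inhibition of human JEG-3 cells, read out with a cell viability assay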
Description: SANGER: Inhibition of human JEG-3 cell growth in a cell viability assay.

BFTC-909 = format: functional, cell-based; conditions: Homo sapiens
Description: SANGER: Inhibition of human BFTC-909 cell growth in a cell viability assay.

U-118-MG = format: functional, cell-based; conditions: Homo sapiens
Description: SANGER: Inhibition of human U-118-MG cell growth in a cell viability assay.

HCC1569 = format: functional, cell-based; conditions: Homo sapiens;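 note: growth inhibition of human HCC1569 cells, read out with a cell viability assay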
Description: SANGER: Inhibition of human HCC1569 cell growth in a cell viability assay.

DU-145 = format: functional, cell-based; conditions: Homo sapiens
Description: SANGER: Inhibition of human DU-145 cell growth in a cell viability assay.

LC4-1 = format: functional, cell-based, Homo sapiens; conditions: Homo sapiens, LC4-1;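 note: growth inhibition of LC4-1 cells, read out with a cell viability assay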
Description: SANGER: Inhibition of human LC4-1 cell growth in a cell viability assay.

K052 = format: functional, cell-based, Homo sapiens; conditions: Homo sapiens, K052;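 note: Read-out from a cell viability assay, IC50 reflecting suppression of K052 cell growth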
Description: SANGER: Inhibition of human K052 cell growth in a cell viability assay.

CAL-12T = format: functional, cell-based; conditions: Homo sapiens;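 note: growth inhibition of human CAL-12T cells, read out with a cell viability assay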
Description: SANGER: Inhibition of human CAL-12T cell growth in a cell viability assay.

CP50-MEL-B = format: functional, cell-based; conditions: Homo sapiens;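 note: growth inhibition of the human cell line, measured with a cell viability read-out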
Description: SANGER: Inhibition of human CP50-MEL-B cell growth in a cell viability assay.

NCI-H716 = format: functional, cell-based, Homo sapiens; conditions: Homo sapiens, NCI-H716;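 note: growth inhibition of human NCI-H716 cells, measured by a cell viability assay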
Description: SANGER: Inhibition of human NCI-H716 cell growth in a cell viability assay.

FTC-133 = format: functional, cell-based; conditions: Homo sapiens
COLO-678 = format: functional, cell-based; conditions: Homo sapiens
Description: SANGER: Inhibition of human COLO-678 cell growth in a cell viability assay.

NCI-H2228 = format: functional, cell-based; conditions: Homo sapiens;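 note: growth inhibition of human NCI-H2228 cells, read out by a cell viability assay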
Description: SANGER: Inhibition of human NCI-H2228 cell growth in a cell viability assay.

SK-MEL-24 = format: functional, cell-based; conditions: Homo sapiens;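 note: growth inhibition read out by a cell viability assay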
Description: SANGER: Inhibition of human SK-MEL-24 cell growth in a cell viability assay.

THP-1 = format: functional, cell-based, Homo sapiens; conditions: Homo sapiens, THP-1;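 note: growth inhibition of THP-1 cells, read out via a cell viability assay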
Description: SANGER: Inhibition of human THP-1 cell growth in a cell viability assay.

KMOE-2 = format: functional, cell-based, Homo sapiens; conditions: Homo sapiens, KMOE-2;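 note: growth inhibition of human KMOE-2 cells, read out with a cell viability assay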
Description: SANGER: Inhibition of human KMOE-2 cell growth in a cell viability assay.

NCI-H1623 = format: functional, cell-based; conditions: Homo sapiens;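 note: cell viability assay used as the read-out for growth inhibition of NCI-H1623 cells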
Description: SANGER: Inhibition of human NCI-H1623 cell growth in a cell viability assay.

P31-FUJ = format: functional, cell-based, Homo sapiens; conditions: Homo sapiens, P31-FUJ;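 note: growth inhibition of P31-FUJ cells, read out with a viability assay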
Description: SANGER: Inhibition of human P31-FUJ cell growth in a cell viability assay.

SW1710 = format: functional, cell-based; conditions: Homo sapiens;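 note: growth inhibition of SW1710 cells, determined with a cell viability assay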
Description: SANGER: Inhibition of human SW1710 cell growth in a cell viability assay.

CHL-1 = format: functional, cell-based; conditions: Homo sapiens;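 note: cell growth inhibition, read out with a cell viability assay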
Description: SANGER: Inhibition of human CHL-1 cell growth in a cell viability assay.

HCC38 = format: functional, cell-based; conditions: Homo sapiens;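 note: cell viability assay on the human HCC38 cell line, with IC50 marking the concentration that inhibits cell growth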
Description: SANGER: Inhibition of human HCC38 cell growth in a cell viability assay.

SAOS-2 = format: functional, cell-based; conditions: Homo sapiens;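 note: growth inhibition of human Saos-2 cells determined by a cell viability assay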
Description: SANGER: Inhibition of human Saos-2 cell growth in a cell viability assay.

KYSE-150 cell line = format: functional, cell-based; conditions: Homo sapiens;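 note: growth inhibition of human KYSE-150 cells, read out with a cell viability assay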
Description: SANGER: Inhibition of human KYSE-150 cell growth in a cell viability assay.

PANC-08-13 = format: functional, cell-based; conditions: Homo sapiens;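 note: cell growth inhibition, measured with a cell viability assay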
Description: SANGER: Inhibition of human PANC-08-13 cell growth in a cell viability assay.

KMS-12-PE = format: functional, cell-based, Homo sapiens; conditions: Homo sapiens, KMS-12-PE;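 note: growth inhibition of human KMS-12-PE cells, measured with a cell viability assay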
Description: SANGER: Inhibition of human KMS-12-PE cell growth in a cell viability assay.

EHEB = format: functional, cell-based; conditions: Homo sapiens;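 note: growth inhibition of human EHEB cells, read out with a cell viability assay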
Description: SANGER: Inhibition of human EHEB cell growth in a cell viability assay.

GAMG = format: functional, cell-based; conditions: Homo sapiens;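 note: cell growth inhibition measured by a viability assay in the GAMG human cell line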
Description: SANGER: Inhibition of human GAMG cell growth in a cell viability assay.

IGROV-1 = format: functional, cell-based; conditions: Homo sapiens;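 note: reduction of IGROV-1 cell growth, read out with a viability assay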
Description: SANGER: Inhibition of human IGROV-1 cell growth in a cell viability assay.

OE19 = format: functional, cell-based; conditions: Homo sapiens;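 note: growth inhibition of OE19 cells, measured through a cell viability read-out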
Description: SANGER: Inhibition of human OE19 cell growth in a cell viability assay.

NCI-H1436 = format: functional, cell-based, Homo sapiens; conditions: Homo sapiens, NCI-H1436;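 note: growth suppression of human NCI-H1436 cells, determined with a cell viability readout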
Description: SANGER: Inhibition of human NCI-H1436 cell growth in a cell viability assay.

8305C = format: functional, cell-based; conditions: Homo sapiens
Description: SANGER: Inhibition of human 8305C cell growth in a cell viability assay.

647-V = format: functional, cell-based; conditions: Homo sapiens;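 note: growth inhibition of 647-V cells, read out with a cell viability assay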
Description: SANGER: Inhibition of human 647-V cell growth in a cell viability assay.

UO-31 = format: functional, cell-based; conditions: Homo sapiens;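 note: cell viability assay measuring inhibition of cell growth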
Description: SANGER: Inhibition of human U031 cell growth in a cell viability assay.

NCI-H1793 = format: functional, cell-based; conditions: Homo sapiens;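 note: cell growth inhibition, read out by a cell viability assay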
Description: SANGER: Inhibition of human NCI-H1793 cell growth in a cell viability assay.

HOS = format: functional, cell-based; conditions: Homo sapiens;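 note: growth inhibition of human HOS cells, read out with a cell viability assay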
Description: SANGER: Inhibition of human HOS cell growth in a cell viability assay.

NCI-H2030 = format: functional, cell-based; conditions: Homo sapiens;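 note: growth inhibition of human NCI-H2030 cells, read out by a cell viability assay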
Description: SANGER: Inhibition of human NCI-H2030 cell growth in a cell viability assay.

HuCCT-1 = format: functional, cell-based, HuCCT1; conditions: Homo sapiens;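 note: growth inhibition of HuCCT-1 cells, read out by a cell viability assay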
Description: SANGER: Inhibition of human HuCCT1 cell growth in a cell viability assay.

Ca-Ski = format: functional, cell-based; conditions: Homo sapiens;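 note: cell viability assay measuring inhibition of Ca-Ski cell growth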
Description: SANGER: Inhibition of human Ca-Ski cell growth in a cell viability assay.

HC-1 = format: functional, cell-based, Homo sapiens; conditions: Homo sapiens, HC-1;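 note: growth inhibition of HC-1 cells measured by a cell viability assay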
Description: SANGER: Inhibition of human HC-1 cell growth in a cell viability assay.

HLE = format: functional, cell-based; conditions: Homo sapiens;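 note: growth inhibition of human HLE cells, read out by a cell viability assay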
Description: SANGER: Inhibition of human HLE cell growth in a cell viability assay.

MG-63 = format: functional, cell-based; conditions: Homo sapiens;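 note: growth inhibition of human MG-63 cells, read out with a cell viability assay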
Description: SANGER: Inhibition of human MG-63 cell growth in a cell viability assay.

HCC1954 = format: functional, cell-based; conditions: Homo sapiens;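 note: growth inhibition of human HCC1954 cells, read out with a cell viability assay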
Description: SANGER: Inhibition of human HCC1954 cell growth in a cell viability assay.

HN = format: functional, cell-based; conditions: Homo sapiens
Description: SANGER: Inhibition of human HN cell growth in a cell viability assay.

MCF7 = format: functional, cell-based; conditions: Homo sapiens;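 note: growth inhibition of human MCF7 cells, read out with a cell viability assay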
Description: SANGER: Inhibition of human MCF7 cell growth in a cell viability assay.

RPMI-2650 = format: functional, cell-based; conditions: Homo sapiens
Description: SANGER: Inhibition of human RPMI-2650 cell growth in a cell viability assay.

COLO-741 = format: functional, cell-based; conditions: Homo sapiens
Description: SANGER: Inhibition of human COLO-741 cell growth in a cell viability assay.

CAL-51 = format: functional, cell-based; conditions: Homo sapiens;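 note: human CAL-51 cell line, growth inhibition read out via a cell viability assay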
Description: SANGER: Inhibition of human CAL-51 cell growth in a cell viability assay.

SW48 = format: functional, cell-based; conditions: Homo sapiens;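 note: growth inhibition of SW48 cells, read out with a cell viability assay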
Description: SANGER: Inhibition of human SW48 cell growth in a cell viability assay.

Which results are given for `COc1ccc(-c2cc3nccn3c(Nc3ncccc3C(N)=O)n2)cc1OC`?
IC50 (CHP-212): 6450 nM; IC50 (OVCAR-3): > 8000 nM; IC50 (BFTC-905): 2290 nM; IC50 (SBC-5): > 8000 nM; IC50 (MDA-MB-134-VI): > 8000 nM; IC50 (T47D): > 8000 nM; IC50 (NCI-H510A): > 8000 nM; IC50 (786-0): 1360 nM; IC50 (SR): 548 nM; IC50 (BCPAP): 3170 nM; IC50 (PANC-03-27): 5560 nM; IC50 (NY): > 8000 nM; IC50 (JEG-3): > 8000 nM; IC50 (BFTC-909): > 8000 nM; IC50 (U-118-MG): 6780 nM; IC50 (HCC1569): > 8000 nM; IC50 (DU-145): 7970 nM; IC50 (LC4-1): 5980 nM; IC50 (K052): > 8000 nM; IC50 (CAL-12T): 496 nM; IC50 (CP50-MEL-B): > 8000 nM; IC50 (NCI-H716): > 8000 nM; IC50 (FTC-133): > 8000 nM; IC50 (COLO-678): > 8000 nM; IC50 (NCI-H2228): 4340 nM; IC50 (SK-MEL-24): > 8000 nM; IC50 (THP-1): > 8000 nM; IC50 (KMOE-2): 1980 nM; IC50 (NCI-H1623): > 8000 nM; IC50 (P31-FUJ): > 8000 nM; IC50 (SW1710): 1660 nM; IC50 (CHL-1): 4050 nM; IC50 (HCC38): > 8000 nM; IC50 (SAOS-2): > 8000 nM; IC50 (KYSE-150 cell line): 6050 nM; IC50 (PANC-08-13): > 8000 nM; IC50 (KMS-12-PE): > 8000 nM; IC50 (EHEB): 3790 nM; IC50 (GAMG): > 8000 nM; IC50 (IGROV-1): 2530 nM; IC50 (OE19): > 8000 nM; IC50 (NCI-H1436): > 8000 nM; IC50 (8305C): 2420 nM; IC50 (647-V): 7300 nM; IC50 (UO-31): 6710 nM; IC50 (NCI-H1793): > 8000 nM; IC50 (HOS): 3320 nM; IC50 (NCI-H2030): 6250 nM; IC50 (HuCCT-1): > 8000 nM; IC50 (Ca-Ski): 4550 nM; IC50 (HC-1): 754 nM; IC50 (HLE): 3230 nM; IC50 (MG-63): > 8000 nM; IC50 (HCC1954): > 8000 nM; IC50 (HN): > 8000 nM; IC50 (MCF7): 1150 nM; IC50 (RPMI-2650): 696 nM; IC50 (COLO-741): > 8000 nM; IC50 (CAL-51): 3020 nM; IC50 (SW48): 7730 nM

`COC(=O)[C@H](CCSC)NC(=O)c1ccc(NC[C@@H](N)CS)cc1-c1ccccc1` was tested. Which IC50 (CHP-212) did it give?
Its IC50 is > 1020 nM.

And the IC50 (OVCAR-3)?
Its IC50 is > 1020 nM.

And the IC50 (BFTC-905)?
Its IC50 is > 1020 nM.

And the IC50 (SBC-5)?
The IC50 was > 1020 nM.

And the IC50 (MDA-MB-134-VI)?
Its IC50 is > 1020 nM.

What about the IC50 (T47D) of the same compound?
The IC50 was > 1020 nM.

And the IC50 (NCI-H510A)?
The IC50 was > 1020 nM.

And the IC50 (786-0)?
Its IC50 is > 1020 nM.

And the IC50 (SR)?
Its IC50 is > 1020 nM.

And the IC50 (BCPAP)?
The IC50 was > 1020 nM.

And the IC50 (PANC-03-27)?
The IC50 was > 1020 nM.

And the IC50 (NY)?
The IC50 was > 1020 nM.

What about the IC50 (JEG-3) of the same compound?
The IC50 was > 1020 nM.

What about the IC50 (BFTC-909) of the same compound?
Its IC50 is > 1020 nM.

What about the IC50 (U-118-MG) of the same compound?
Its IC50 is > 1020 nM.

What about the IC50 (HCC1569) of the same compound?
The IC50 was > 1020 nM.

What about the IC50 (DU-145) of the same compound?
The IC50 was > 1020 nM.

And the IC50 (LC4-1)?
Its IC50 is > 1020 nM.

What about the IC50 (K052) of the same compound?
The IC50 was > 1020 nM.

What about the IC50 (CAL-12T) of the same compound?
Its IC50 is > 1020 nM.

What about the IC50 (CP50-MEL-B) of the same compound?
The IC50 was > 1020 nM.

And the IC50 (NCI-H716)?
The IC50 was > 1020 nM.

And the IC50 (FTC-133)?
The IC50 was > 1020 nM.

And the IC50 (COLO-678)?
Its IC50 is > 1020 nM.

And the IC50 (NCI-H2228)?
The IC50 was > 1020 nM.

And the IC50 (SK-MEL-24)?
Its IC50 is > 1020 nM.

And the IC50 (THP-1)?
The IC50 was > 1020 nM.

And the IC50 (KMOE-2)?
Its IC50 is > 1020 nM.

What about the IC50 (NCI-H1623) of the same compound?
The IC50 was > 1020 nM.

And the IC50 (P31-FUJ)?
Its IC50 is > 1020 nM.

What about the IC50 (SW1710) of the same compound?
Its IC50 is > 1020 nM.

And the IC50 (CHL-1)?
The IC50 was > 1020 nM.

What about the IC50 (HCC38) of the same compound?
Its IC50 is > 1020 nM.

What about the IC50 (SAOS-2) of the same compound?
The IC50 was > 1020 nM.

What about the IC50 (KYSE-150 cell line) of the same compound?
Its IC50 is > 1020 nM.

What about the IC50 (PANC-08-13) of the same compound?
The IC50 was > 1020 nM.

And the IC50 (KMS-12-PE)?
The IC50 was > 1020 nM.

And the IC50 (EHEB)?
The IC50 was > 1020 nM.

And the IC50 (GAMG)?
The IC50 was > 1020 nM.

What about the IC50 (IGROV-1) of the same compound?
The IC50 was > 1020 nM.

What about the IC50 (OE19) of the same compound?
The IC50 was > 1020 nM.

And the IC50 (NCI-H1436)?
The IC50 was > 1020 nM.

What about the IC50 (8305C) of the same compound?
Its IC50 is > 1020 nM.

And the IC50 (647-V)?
The IC50 was > 1020 nM.

What about the IC50 (UO-31) of the same compound?
Its IC50 is > 1020 nM.

What about the IC50 (NCI-H1793) of the same compound?
The IC50 was > 1020 nM.

And the IC50 (HOS)?
The IC50 was > 1020 nM.

And the IC50 (NCI-H2030)?
Its IC50 is > 1020 nM.

What about the IC50 (HuCCT-1) of the same compound?
The IC50 was > 1020 nM.

What about the IC50 (Ca-Ski) of the same compound?
The IC50 was > 1020 nM.

And the IC50 (HC-1)?
Its IC50 is > 1020 nM.

And the IC50 (HLE)?
The IC50 was > 1020 nM.

What about the IC50 (MG-63) of the same compound?
The IC50 was > 1020 nM.

What about the IC50 (HCC1954) of the same compound?
The IC50 was > 1020 nM.

What about the IC50 (HN) of the same compound?
Its IC50 is > 1020 nM.

What about the IC50 (MCF7) of the same compound?
Its IC50 is > 1020 nM.

And the IC50 (RPMI-2650)?
The IC50 was > 1020 nM.

What about the IC50 (COLO-741) of the same compound?
The IC50 was > 1020 nM.

What about the IC50 (CAL-51) of the same compound?
The IC50 was > 1020 nM.

And the IC50 (SW48)?
Its IC50 is > 1020 nM.
